Test: Single dose toxicity study in dogs
Format: in vivo, dog
Conditions: beagle dogs, single oral dose 10, 30, 100 mg/kg
Description: Single Dose Toxicity Study in Dogs
The study was carried out with TOYO beagles (KITAYAMA LABES CO., LTD., Hongou farm), four dogs per each sex. They were 5-month old on arrival at testing facility, and were 10-month old when started to be administered. Basal diet was 300 g/day, DS-A (Oriental Yeast Co., Ltd.), and drinking water was tap water. Allocation to the groups was carried out so that an animal number was allocated in order of quarantine number for males and females respectively whose clinical signs and results of clinical laboratory test were considered to be normal.
As to a dosing suspension, 0.5 w/v % HPMC aqueous solution was used as a vehicle, the required amounts of test compound were pre-weighed for each dose group, and it was prepared in a specified concentration with mortar and pestleon the day of administration. Dose volume was 5 mL/kg (calculated on the basis of body weight measured on the day of administration). […]
A clinical sign was observed before administration and during TK blood sampling on the day of administration, and once in the morning every day on the day other than administration. Body weight was measured in the pre-dosing term (−5th day, −1st day), on the day of administration and on the next day after administration.
Feeding was carried out every day, and food consumption (g/day) was calculated from the remaining food in the next morning after feeding. […]

## Cc1c(C(=O)Nc2cnc(N3CCC(O)CC3)c(C3CC3)c2)cnn1-c1ccc(Cl)cc1 [Example 39, 1-(4-chlorophenyl)-N-[5-cyclopropyl-6-(4-hydroxypiperidin-1-yl)pyridin-3-yl]-5-methyl-1H-pyrazole-4-carboxamide]
  Changes caused by administration (clinical signs, body weight, food consumption, hematology, blood chemistry incl. ALT, AST, TBil): no changes caused by administration were found in any doses

Reference: patent US9527859B2, “Amidopyridine derivative and use thereof” (Mitsubishi Tanabe Pharma Corporation, priority 2012, dated 2016)
